Test [1] concerns the target T1, NEMO/IKKβ complex (MBP-IKKβ (701–745) / GST-NEMO (1–196)) (Homo sapiens, UniProt Q9Y6K9).
T1 construct: made in house; host or cells: E. coli BL21(DE3)
Briefly: SPR competition assay of NEMO/IKKβ binding. As to the method:
(§1) MBP-IKKβ was immobilized on the surface of the CM5 chip using the amine-coupling approach at a flow rate of 10 μL/min in 10 mM sodium acetate buffer (pH 5.0). The sensor surface was activated with a 7 min injection of a mixture comprising 50 mM N-hydroxysuccinimide (NHS) and 200 mM 1-ethyl-3-(3- dimethylaminopropyl) carbodiimide (EDC). Then, 33 μg/mL of IKKβ was injected to reach the target level of 500 RU and the surface was blocked with 1 M ethanolamine, pH 8.5. A series of concentrations of NEMO or SHK were injected into the flow system and analyzed for 90 or 120 s, followed by dissociation for 90 or 600 s. All binding analyses was performed in phosphate-buffered saline (PBS, pH 7.4) with 0.05% (v/v) Tween-20 at 25 °C. Prior to analysis, double reference subtractions were made to eliminate bulk refractive index changes, injection noise, and data drift. The binding affinity was determined by fitting to a Langmuir 1:1 binding model in the Biacore Evaluation software (GE Healthcare).
(§2) According to the instructions from GE, an anti-GST antibody was immobilized onto the CM5 chip surface. The sensor surface was activated with NHS and EDC, after which 15 μg/mL of anti-GST antibody was injected for 420 s and the surface was blocked with 1 M ethanolamine, pH 8.5. […] For each analyte, 50 μg/mL of GST-G was captured for 60 s and 10 mM glycine-HCl (pH 2.1) was used to regenerate the surface. MBP-B was analyzed with 120 s injection and 120 s dissociation. A series of SHK concentrations was analyzed with 90 s injection and 90 s dissociation.
For the competition assay, we tried two methods with MBP-IKKβ and GST-NEMO immobilized separately. Mixtures including series concentrations of SHK and 1 μM GST-NEMO were tested on MBP-IKKβ-immobilized surface; while other mixtures including series concentrations of SHK and 0.5 μM MBP-IKKβ were tested on GST-NEMO-captured surface. […] By recording the binding responses at 120 s, the inhibition effects of SHK were calculated to determine the IC50.

Test [2] has as its target T2, MBP-IKKβ (701–745) (Homo sapiens, UniProt O14920).
T2 construct: made in house; host or cells: E. coli BL21(DE3)
T2 sequence (O14920 701-745): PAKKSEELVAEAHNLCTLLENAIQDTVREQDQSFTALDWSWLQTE
In words: SPR affinity assay on immobilized MBP-IKKβ. The class given is binding. As to the method:
as §1, with “The” for “MBP-IKKβ was immobilized on the surface of the CM5 chip using the amine-coupling approach at a flow rate of 10 μL/min in 10 mM sodium acetate buffer (pH 5.0). The”

Test [3] concerns the target T3, GST-NEMO (1–196) (Homo sapiens, UniProt Q9Y6K9).
T3 construct: assays using MBP-IKKβ (701–745) and GST-NEMO (1–196) peptides; made in house; host or cells: E. coli BL21(DE3)
In words: SPR affinity assay on captured GST-NEMO. The class given is binding. The method, then: as §2

Test [4] concerns the target T2, MBP-IKKβ (701–745). Briefly: MST binding assay to IKKβ.
Test [5] addresses T3, GST-NEMO (1–196). In words: MST binding assay to NEMO.
Test [6] concerns colorectal cancer cells (LoVo, RKO, SW620, HCT15, HCT116). Briefly: CCK-8 cell viability assay, colorectal cancer cells. The class given is cell-based, human. Conditions: 48 h. The method, then:
(§3) Cell viability was determined using the CCK-8 assay. Briefly, 5×10³ cells were seeded into 96-well culture plates, allowed to adhere for overnight, and then changed to fresh medium containing various concentrations of SHK (0, 0.5, 1, 2 and 5 µM) dissolved in DMSO (final concentration, 0.1%). After incubation for 48 h, the CCK-8 reagent was added, and the absorbance was measured at 450 nm using an EnSpire® Multimode Plate Reader (Perkin Elmer, USA). The cell viability in the vehicle control groups was defined as 100%. Each assay was carried out in triplicate.

Another test relates to CCD841 CoN cells. Briefly: CCK-8 cell viability assay, normal colonic epithelial cells. The class given is cell-based, human. Conditions: 0.5–5 μM, 48 h. As to the method: as §3
The subject of a further test is LoVo and RKO cells. Briefly: Colony formation assay. The class given is cell-based, human. As to the method: Detached cells (1 × 10^3 per well) were seeded into six-well plates containing 2 mL of growth medium with 10% FBS and cultured for 24 h. Then, the medium was removed and the cells were treated with various concentrations of SHK. After 24 h, the cells were washed with PBS and supplemented with fresh growth medium. The cells were routinely incubated for about two weeks until colonies were large enough to be visualized. Then, the colonies were stained with 0.1% crystal violet and counted.

Test [7] concerns COX-2, iNOS, IL-6, TNF-α in LoVo and RKO cells. Briefly: Expression of inflammatory markers by qPCR and western blotting. The class given is cell-based, human. As to the method:
Protein lysates were separated by electrophoresis in a 10% acrylamide sodium dodecyl sulfate-polyacrylamide minigel (SDS-PAGE), electrophoretically transferred to a PVDF membrane, and immunoblotted with specific antibodies. The protein bands were detected by enhanced chemiluminescence. The protein concentrations were determined using a BCA protein assay kit (Beyotime Biotechnology, China). The experiments were carried out at least three times.

Where “and” joins values, the source holds several entries; their conditions need not be identical. Equal entries are not always repeated. Where two headings read alike, the source gives them in different places.

The values that follow come from publication PMC8904520, “Characterization of a small-molecule inhibitor targeting NEMO/IKKβ to suppress colorectal cancer growth” (Signal Transduction and Targeted Therapy, 2022).

T1 sequence (Q9Y6K9 1-196, one chain of several): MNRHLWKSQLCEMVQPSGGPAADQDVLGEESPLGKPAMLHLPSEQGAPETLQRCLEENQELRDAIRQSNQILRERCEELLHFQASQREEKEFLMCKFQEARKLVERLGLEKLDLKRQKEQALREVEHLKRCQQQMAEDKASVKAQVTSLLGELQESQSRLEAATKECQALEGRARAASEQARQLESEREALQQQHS
T3 sequence (Q9Y6K9 1-196): as the sequence (Q9Y6K9 1-196, one chain of several) above

`CC(C)=CC[C@@H](O)C1=CC(=O)c2c(O)ccc(O)c2C1=O` [SHK, Shikonin]: the IC50 in test [1] (IC50 for impairing binding of GST-NEMO (1–196) to MBP-IKKβ (701–745), MBP-IKKβ immobilized, SHK pre-incubated with 1 μM GST-NEMO for 30 min) was 0.176 ± 0.0264 µM; in test [1] (IC50 for inhibiting binding of MBP-IKKβ (701–745) to GST-NEMO (1–196), GST-NEMO immobilized, SHK pre-incubated with 0.5 μM MBP-IKKβ for 30 min) it was 0.171 ± 0.0356 µM; in test [1] (summary value as quoted in abstract, introduction, discussion, read-out: IC50 for destabilizing / inhibiting NEMO/IKKβ complex formation) it was 0.174 µM and ~0.17 µM; in test [6] (Homo sapiens, CCK-8, range over cell lines, read-out: IC50 for inhibition of proliferation in colorectal cancer cells) it was 0.6 to 2.5 µM. Moreover, the Kd was 8.19 ± 1.92 µM on MBP-IKKβ (701–745) [2] (KD for MBP-IKKβ (701–745), SPR); roughly 10 µM at MBP-IKKβ (701–745) [2] (approximate summary value in discussion (SPR and MST), read-out: KD for either IKKβ or NEMO alone); 8.29 ± 2.38 µM at GST-NEMO (1–196) [3]; 15.2 ± 4 µM at MBP-IKKβ (701–745) [4]; 14.2 ± 1.7 µM at GST-NEMO (1–196) [5]. Moreover, the “growth inhibition of cancer cell lines” value in [6] (LoVo, RKO, SW620, HCT15, HCT116) is given as “dose-dependent growth inhibition”. Also, in the test on CCD841 CoN cells, the “growth inhibitory effect in normal colonic epithelial cells” value is “absent”. Also, the colony formation entry in the test with LoVo and RKO cells is recorded as “colony formation suppression”. The “expression of inflammatory markers COX-2, iNOS, IL-6, TNF-α” value in test [7] was “suppressed the expression of inflammatory markers”.
